In patent publication US20260364184A1, “COMPOUND BASED ON OXOISOINDOLINYL-SUBSTITUTED TETRAHYDROPYRIMIDINE-DIONE AND USE THEREOF” (GLUETACS THERAPEUTICS (SHANGHAI) CO., LTD., priority 2023, published 2026):

Key:
[1] = system: Human non-small cell lung cancer cell line NCI-H1975; assay: Inhibition of H1975 cell proliferation (CellTiter luminescent viability); format: cell-based; settings: Table ID1, EGFR inhibitor-based; H1975, 96 hours; read-out: Inhibitory activity (IC50, nM) on tumor cell proliferation, H1975
Protocol: The tumor cells used herein were cultured in a cell culture medium listed in table 3 at 37 °C in an incubator with 5% CO2. Prior to experimentation, all cell lines used were correctly identified by STR profiling, and tested negative for mycoplasma contamination using a mycoplasma detection kit through routine screenings.
The IC50 values of the compounds of the present disclosure (including the compounds in Table 1, Table 2, and Examples 1-468) were determined using the CellTiter-Meiluncell Luminescent Cell Viability Assay Kit from Dalian Meilun Biotech Co., Ltd. The detailed procedure is as follows: Tumor cells were seeded in 96-well cell culture plates at the densities specified in Table 4. On the following day, the test compounds of the present disclosure were subjected to serial dilution. The dilution can be performed according to one of the following two methods: • (1) The first dilution method: The test compounds of the present disclosure (including the compounds in Table 1, Table 2, and Examples 1-468) were subjected to 5-fold serial dilutions starting from a highest concentration of 2000 μM, resulting in a total of 9 concentrations from high to low (2000, 400, 80, 16, 3.2, 0.64, 0.128, 0.0256, 0.00512 μM). Subsequently, 0.5 μL of the test compound dilution was transferred into the 96-well plate containing the cells, with each well containing 100 μL of cell culture medium. […] Into the 96-well plate, the diluted test compounds and corresponding detection reagents were added, resulting in final test compound concentrations of 500 nM and 10 nM, respectively. The experimental procedure is described below using the diluted 2 μM test compound as an example.
0.5 μL of the aforementioned diluted compound of the present disclosure (including the compounds in Table 1, Table 2, and Examples 1-468) was added to the seeded cells in 100 μL of medium, yielding a final test compound concentration of 10 nM. After the cells were treated with the compounds of the present disclosure for a specified period, the cell viability assay reagent was added to the culture medium according to the kit's instructions to determine cell viability. […] All controls were treated using the same procedure as the compounds of the present disclosure. The growth inhibition curves for the compounds of the present disclosure were plotted using Prism GraphPad software, and the IC50 values were calculated therefrom.

EGFR = target: T1, EGFR (Homo sapiens, UniProt P00533); assay: Western blot degradation of EGFR; format: cell-based; settings: H1975 Cell; 24 hours
T1 construct: L858R/T790M in cis, heterozygous with wild type), Western blot
T1 sequence (P00533 25-1210): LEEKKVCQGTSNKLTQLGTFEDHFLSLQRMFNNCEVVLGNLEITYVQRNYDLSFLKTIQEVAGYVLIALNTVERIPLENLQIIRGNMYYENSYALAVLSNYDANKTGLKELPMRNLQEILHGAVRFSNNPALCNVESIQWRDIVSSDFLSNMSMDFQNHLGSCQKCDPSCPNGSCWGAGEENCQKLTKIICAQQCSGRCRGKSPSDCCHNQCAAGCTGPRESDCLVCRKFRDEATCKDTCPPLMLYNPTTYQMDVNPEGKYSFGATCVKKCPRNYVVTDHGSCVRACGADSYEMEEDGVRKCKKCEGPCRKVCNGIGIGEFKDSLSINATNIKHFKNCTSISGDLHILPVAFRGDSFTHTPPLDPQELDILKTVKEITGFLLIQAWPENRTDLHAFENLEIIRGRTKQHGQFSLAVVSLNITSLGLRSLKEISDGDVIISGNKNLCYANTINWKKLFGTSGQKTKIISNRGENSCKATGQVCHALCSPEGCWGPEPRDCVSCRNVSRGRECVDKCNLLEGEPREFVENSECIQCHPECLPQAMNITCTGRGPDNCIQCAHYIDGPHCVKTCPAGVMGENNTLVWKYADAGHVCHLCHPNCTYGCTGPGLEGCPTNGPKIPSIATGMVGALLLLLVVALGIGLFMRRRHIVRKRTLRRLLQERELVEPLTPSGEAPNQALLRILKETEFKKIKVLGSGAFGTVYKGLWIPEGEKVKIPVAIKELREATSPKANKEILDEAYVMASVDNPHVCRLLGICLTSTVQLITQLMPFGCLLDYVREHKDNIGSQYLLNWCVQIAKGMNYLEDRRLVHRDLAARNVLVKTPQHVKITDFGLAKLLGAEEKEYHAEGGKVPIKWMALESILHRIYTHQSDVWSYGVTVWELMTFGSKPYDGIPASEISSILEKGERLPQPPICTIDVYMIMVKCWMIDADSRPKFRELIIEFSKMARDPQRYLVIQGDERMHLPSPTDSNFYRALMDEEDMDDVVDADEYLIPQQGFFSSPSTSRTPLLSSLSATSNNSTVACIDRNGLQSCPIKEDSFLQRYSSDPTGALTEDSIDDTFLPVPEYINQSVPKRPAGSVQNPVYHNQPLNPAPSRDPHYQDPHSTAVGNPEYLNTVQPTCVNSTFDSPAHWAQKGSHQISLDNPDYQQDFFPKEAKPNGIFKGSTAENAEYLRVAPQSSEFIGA
T1 sequence (Q96SW2 whole entry partner): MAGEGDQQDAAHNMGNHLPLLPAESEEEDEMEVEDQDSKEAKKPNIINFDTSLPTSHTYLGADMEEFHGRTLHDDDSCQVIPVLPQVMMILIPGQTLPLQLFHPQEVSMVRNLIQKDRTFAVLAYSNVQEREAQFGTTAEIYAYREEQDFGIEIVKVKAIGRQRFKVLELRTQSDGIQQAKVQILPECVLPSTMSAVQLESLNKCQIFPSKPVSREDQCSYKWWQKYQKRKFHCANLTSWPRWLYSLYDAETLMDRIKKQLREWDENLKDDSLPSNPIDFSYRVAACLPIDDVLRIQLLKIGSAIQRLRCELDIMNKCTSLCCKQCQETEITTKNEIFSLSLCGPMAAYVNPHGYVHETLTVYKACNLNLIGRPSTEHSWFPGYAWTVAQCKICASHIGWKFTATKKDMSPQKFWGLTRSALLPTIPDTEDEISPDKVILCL
Protocol: Conventional Western blot assay was performed to evaluate the effects of the compounds of the present disclosure on the expression of target proteins in cells.
(1) Cell Seeding and Protein Harvesting: The selected cells were processed according to the cell seeding procedure and protein harvesting procedure in Table II-2.
(2) To the collected supernatant, 5×SDS sample loading buffer was added, followed by denaturation at 95 °C for 5 minutes. The denatured samples were then separated by SDS-PAGE electrophoresis on a polyacrylamide gel. Proteins were transferred to a nitrocellulose membrane (0.45 μm NC membrane), blocked with blocking buffer at room temperature for 1 hour, and subjected to antibody incubation and development procedures according to the antibody manufacturer's instructions (Cell Signaling Technology).
Half-Maximal Degradation Concentration value (the drug concentration required for degrading proteins by 50%, abbreviated as DC50) reads method: comparing the grayscale values of Western blot bands from drug-treated samples with those from blank DMSO-treated controls, and identifying the drug concentration range at which the grayscale value is half that of the DMSO-treated control bands.
DC50 values can be calculated using ImageJ software to measure grayscale values of Western blot bands from drug-treated samples. The concentration-response curve is fitted to estimate the drug concentration corresponding to half the grayscale value.
Target protein remaining (%) refers to the percentage of target protein remaining in cells after treatment with protein degrader compounds.
Calculation method for target protein remaining (%): Use ImageJ software to measure grayscale values of Western blot bands from drug (protein degrader)-treated samples. The grayscale value of drug-treated bands is divided by that of internal control protein bands, and the resulting quotient is normalized to obtain the relative percentage of remaining target protein after protein degrader treatment.
Target protein degradation rate (%)=1−target protein remaining (%).

[2] = target: T2, human Cereblon WT GST-tagged protein (CRBN) (Homo sapiens, UniProt Q96SW2); assay: CRBN binding by HTRF (Cereblon binding kit)
T2 construct: purchased CISBIO 64BDCRBNPEH
T2 sequence (Q96SW2 whole entry): as the sequence (Q96SW2 whole entry partner) above
How it was run: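 GST-tagged human Cereblon WT was incubated 3 h at room temperature with compound, thalidomide-Re tracer and Eu anti-GST antibody. Final compound concentrations were 10 to 0.00064 µM (7 points) or 2 and 0.5 µM. Inhibition rate was calculated from HTRF 665/620 nm ratios versus solvent and blank controls.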

SMILES | IC50 [1] [nM] | Degradation of substrate protein EGFR (substrate protein remaining %) (EGFR) | Inhibition Rate at 0.5 μM (%) ([2]; 0.5 μM) | Inhibition Rate at 2 μM (%) ([2]; 2 μM)
O=C1CCN(N2Cc3cc(CN4CCN(c5ccc(-c6cc(F)c7c(c6)C(=O)N(C(C(=O)Nc6nccs6)c6ncn8c6CCC8)C7)cc5)CC4)ccc3C2=O)C(=O)N1 (stereo not shown) [GT-06159, 2-(6,7-dihydro-5H-pyrrolo[1,2-c]imidazol-1-yl)-2-(6-(4-(4-((2-(2,4-dioxotetrahydropyrimidin-1(2H)-yl)-1-oxoisoindolin-5-yl)methyl)piperazin-1-yl)phenyl)-4-fluoro-1-oxoisoindolin-2-yl)-N-(thiazol-2-yl)acetamide] | < 10 | A (0%≤substrate protein remaining %≤80%) |  | 
O=C1CCN(N2C(=O)c3ccc(N4CCC(CN5CCN(c6ccc(-c7cc(F)c8c(c7)C(=O)N(C(C(=O)Nc7nccs7)c7ncn9c7CCC9)C8)cc6)CC5)CC4)cc3C2=O)C(=O)N1 (stereo not shown) [GT-06161, 2-(6,7-dihydro-5H-pyrrolo[1,2-c]imidazol-1-yl)-2-(6-(4-(4-((1-(2-(2,4-dioxotetrahydropyrimidin-1(2H)-yl)-1,3-dioxoisoindolin-5-yl)piperidin-4-yl)methyl)piperazin-1-yl)phenyl)-4-fluoro-1-oxoisoindolin-2-yl)-N-(thiazol-2-yl)acetamide] | 10 to 50 | A (0%≤substrate protein remaining %≤80%) |  | 
O=C1CCN(N2C(=O)c3ccc(N4CCC(CN5C[C@H]6C[C@@H]5CN6c5ccc(-c6cc(F)c7c(c6)C(=O)N(C(C(=O)Nc6nccs6)c6ncn8c6CCC8)C7)cc5)CC4)cc3C2=O)C(=O)N1 (stereo partly drawn) [GT-06174, 2-(6,7-dihydro-5H-pyrrolo[1,2-c]imidazol-1-yl)-2-(6-(4-((1R,4R)-5-((1-(2-(2,4-dioxotetrahydropyrimidin-1(2H)-yl)-1,3-dioxoisoindolin-5-yl)piperidin-4-yl)methyl)-2,5-diazabicyclo[2.2.1]heptan-2-yl)phenyl)-4-fluoro-1-oxoisoindolin-2-yl)-N-(thiazol-2-yl)acetamide] | 10 to 50 | A (0%≤substrate protein remaining %≤80%) |  | 
O=C1CCN(N2C(=O)c3cccc(N4CCC(CN5C[C@H]6C[C@@H]5CN6c5ccc(-c6cc(F)c7c(c6)C(=O)N(C(C(=O)Nc6nccs6)c6ncn8c6CCC8)C7)cc5)CC4)c3C2=O)C(=O)N1 (stereo partly drawn) [GT-06175, 2-(6,7-dihydro-5H-pyrrolo[1,2-c]imidazol-1-yl)-2-(6-(4-((1R,4R)-5-((1-(2-(2,4-dioxotetrahydropyrimidin-1(2H)-yl)-1,3-dioxoisoindolin-4-yl)piperidin-4-yl)methyl)-2,5-diazabicyclo[2.2.1]heptan-2-yl)phenyl)-4-fluoro-1-oxoisoindolin-2-yl)-N-(thiazol-2-yl)acetamide] | 10 to 50 | A (0%≤substrate protein remaining %≤80%) |  | 
O=C1CCN(N2C(=O)c3ccc(CN4CCN(C5CCN(c6ccc(-c7cc(F)c8c(c7)C(=O)N(C(C(=O)Nc7nccs7)c7ncn9c7CCC9)C8)cc6)CC5)CC4)cc3C2=O)C(=O)N1 (stereo not shown) [GT-06242, 2-(6,7-dihydro-5H-pyrrolo[1,2-c]imidazol-1-yl)-2-(6-(4-(4-(4-((2-(2,4-dioxotetrahydropyrimidin-1(2H)-yl)-1,3-dioxoisoindolin-5-yl)methyl)piperazin-1-yl)piperidin-1-yl)phenyl)-4-fluoro-1-oxoisoindolin-2-yl)-N-(thiazol-2-yl)acetamide] | 50 to 100 |  |  | 
O=C1CCN(N2Cc3cc(CN4C5CCC4CN(c4ccc(-c6cc(F)c7c(c6)C(=O)N(C(C(=O)Nc6nccs6)c6ncn8c6CCC8)C7)cc4)C5)ccc3C2=O)C(=O)N1 (stereo not shown) [GT-06250, 2-(6,7-dihydro-5H-pyrrolo[1,2-c]imidazol-1-yl)-2-(6-(4-(8-((2-(2,4-dioxotetrahydropyrimidin-1(2H)-yl)-1-oxoisoindolin-5-yl)methyl)-3,8-diazabicyclo[3.2.1]octan-3-yl)phenyl)-4-fluoro-1-oxoisoindolin-2-yl)-N-(thiazol-2-yl)acetamide] | < 10 |  |  | 
O=C1CCN(N2C(=O)c3ccc(CN4C5CCC4CN(c4ccc(-c6cc(F)c7c(c6)C(=O)N(C(C(=O)Nc6nccs6)c6ncn8c6CCC8)C7)cc4)C5)cc3C2=O)C(=O)N1 (stereo not shown) [GT-06251, 2-(6,7-dihydro-5H-pyrrolo[1,2-c]imidazol-1-yl)-2-(6-(4-(8-((2-(2,4-dioxotetrahydropyrimidin-1(2H)-yl)-1,3-dioxoisoindolin-5-yl)methyl)-3,8-diazabicyclo[3.2.1]octan-3-yl)phenyl)-4-fluoro-1-oxoisoindolin-2-yl)-N-(thiazol-2-yl)acetamide] | 100 to 130 |  |  | 
O=C1CCN(N2Cc3cc(CN4CCN(C5CCN(c6ccc(-c7cc(F)c8c(c7)C(=O)N(C(C(=O)Nc7nccs7)c7ncn9c7CCC9)C8)cc6)CC5(F)F)CC4)ccc3C2=O)C(=O)N1 (stereo not shown) [GT-06315, 2-(6,7-dihydro-5H-pyrrolo[1,2-c]imidazol-1-yl)-2-(6-(4-(4-(4-((2-(2,4-dioxotetrahydropyrimidin-1(2H)-yl)-1-oxoisoindolin-5-yl)methyl)piperazin-1-yl)-3,3-difluoropiperidin-1-yl)phenyl)-4-fluoro-1-oxoisoindolin-2-yl)-N-(thiazol-2-yl)acetamide] | < 10 | A (0%≤substrate protein remaining %≤80%) |  | 
O=C1CCN(N2C(=O)c3ccc(CN4CCN(C5CCN(c6ccc(-c7cc(F)c8c(c7)C(=O)N(C(C(=O)Nc7nccs7)c7ncn9c7CCC9)C8)cc6)CC5(F)F)CC4)cc3C2=O)C(=O)N1 (stereo not shown) [GT-06316, 2-(6,7-dihydro-5H-pyrrolo[1,2-c]imidazol-1-yl)-2-(6-(4-(4-(4-((2-(2,4-dioxotetrahydropyrimidin-1(2H)-yl)-1,3-dioxoisoindolin-5-yl)methyl)piperazin-1-yl)-3,3-difluoropiperidin-1-yl)phenyl)-4-fluoro-1-oxoisoindolin-2-yl)-N-(thiazol-2-yl)acetamide] | 50 to 100 |  |  | 
O=C1CCN(N2Cc3cc(CN4CCC(N5CCN(c6ccc(-c7cc(F)c8c(c7)C(=O)N(C(C(=O)Nc7nccs7)c7ncn9c7CCC9)C8)cc6)CC5)CC4)ccc3C2=O)C(=O)N1 (stereo not shown) [GT-06324, 2-(6,7-dihydro-5H-pyrrolo[1,2-c]imidazol-1-yl)-2-(6-(4-(4-(1-((2-(2,4-dioxotetrahydropyrimidin-1(2H)-yl)-1-oxoisoindolin-5-yl)methyl)piperidin-4-yl)piperazin-1-yl)phenyl)-4-fluoro-1-oxoisoindolin-2-yl)-N-(thiazol-2-yl)acetamide] | 10 to 50 |  | a1 (10% < a1 ≤ 20%) | a5 (53% < a5 ≤ 60%)
CN(C)C/C=C/C(=O)Nc1cc2c(Nc3ccc(F)c(Cl)c3)ncnc2cc1O[C@H]1CCOC1 [afatinib, Afatinib, reference compound] | 130 to 200 |  |  | 
C#Cc1cccc(Nc2ncnc3cc(OCCOC)c(OCCOC)cc23)c1 [erlotinib, Erlotinib, reference compound] | 1000 to 5000 |  |  | 
